For one test, the target named is T1, BTK-GFP (Homo sapiens, UniProt Q06187+Q96SW2).
T1 construct: the BTK open reading frame (ORF) was first shuttled from a pcDNA-DEST40-BTK vector (Invitrogen library ID INV_20090504v1); expressed in transfected cells; host or cells: HEK293A cells (Invitrogen R70507), lentiviral transduction with pLenti6-BTK-GFP-Ires-RFP, blasticidin-selected
Put plainly: BTK-GFP protein abundance flow cytometry assay in HEK293A cells. Type of test: cell-based. Particulars: 24 h; for BTK deg Amax %: % protein remaining at concentration of maximum degradation; for DC50: concentration at which 50% maximal degradation was observed. In short, it runs like this: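 HEK293A cells stably expressing BTK-GFP-iresRFP treated 24 h at 37° C with 10-point 1:3 dilutions from 10 μM (0.1% DMSO), in duplicate. Median GFP of 5,000 single cells by flow cytometry, normalized to GFP-negative iresRFP cells (0%) and DMSO (100%); DC50 from concentration-response curves.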

In another test the target is T2, IKZF3-GFP (Homo sapiens, UniProt Q9UKT9).
T2 construct: gateway cloning of IKZF3 from a pENTR221-IKZF3(STOP-Leu) construct into the previously described pLenti6-DEST-GFP-Ires-RFP vector; expressed in transfected cells; host or cells: HEK293A cells (Invitrogen R70507), lentiviral transduction with pLenti6-IKZF3-GFP-Ires-RFP, blasticidin-selected
T2 sequence (Q96SW2 whole entry partner): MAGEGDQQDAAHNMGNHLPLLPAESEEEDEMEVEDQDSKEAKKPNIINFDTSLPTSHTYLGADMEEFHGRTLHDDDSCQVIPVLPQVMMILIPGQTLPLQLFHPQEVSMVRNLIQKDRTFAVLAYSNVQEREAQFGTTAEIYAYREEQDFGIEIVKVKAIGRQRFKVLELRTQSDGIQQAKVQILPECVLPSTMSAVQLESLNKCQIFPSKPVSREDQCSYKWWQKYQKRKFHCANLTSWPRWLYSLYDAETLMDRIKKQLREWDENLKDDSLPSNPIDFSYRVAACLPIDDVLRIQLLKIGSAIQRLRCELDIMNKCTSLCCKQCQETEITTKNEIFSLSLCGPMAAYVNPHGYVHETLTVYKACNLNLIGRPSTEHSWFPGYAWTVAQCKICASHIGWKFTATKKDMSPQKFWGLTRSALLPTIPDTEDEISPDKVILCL
T2 sequence (Q16531 whole entry partner): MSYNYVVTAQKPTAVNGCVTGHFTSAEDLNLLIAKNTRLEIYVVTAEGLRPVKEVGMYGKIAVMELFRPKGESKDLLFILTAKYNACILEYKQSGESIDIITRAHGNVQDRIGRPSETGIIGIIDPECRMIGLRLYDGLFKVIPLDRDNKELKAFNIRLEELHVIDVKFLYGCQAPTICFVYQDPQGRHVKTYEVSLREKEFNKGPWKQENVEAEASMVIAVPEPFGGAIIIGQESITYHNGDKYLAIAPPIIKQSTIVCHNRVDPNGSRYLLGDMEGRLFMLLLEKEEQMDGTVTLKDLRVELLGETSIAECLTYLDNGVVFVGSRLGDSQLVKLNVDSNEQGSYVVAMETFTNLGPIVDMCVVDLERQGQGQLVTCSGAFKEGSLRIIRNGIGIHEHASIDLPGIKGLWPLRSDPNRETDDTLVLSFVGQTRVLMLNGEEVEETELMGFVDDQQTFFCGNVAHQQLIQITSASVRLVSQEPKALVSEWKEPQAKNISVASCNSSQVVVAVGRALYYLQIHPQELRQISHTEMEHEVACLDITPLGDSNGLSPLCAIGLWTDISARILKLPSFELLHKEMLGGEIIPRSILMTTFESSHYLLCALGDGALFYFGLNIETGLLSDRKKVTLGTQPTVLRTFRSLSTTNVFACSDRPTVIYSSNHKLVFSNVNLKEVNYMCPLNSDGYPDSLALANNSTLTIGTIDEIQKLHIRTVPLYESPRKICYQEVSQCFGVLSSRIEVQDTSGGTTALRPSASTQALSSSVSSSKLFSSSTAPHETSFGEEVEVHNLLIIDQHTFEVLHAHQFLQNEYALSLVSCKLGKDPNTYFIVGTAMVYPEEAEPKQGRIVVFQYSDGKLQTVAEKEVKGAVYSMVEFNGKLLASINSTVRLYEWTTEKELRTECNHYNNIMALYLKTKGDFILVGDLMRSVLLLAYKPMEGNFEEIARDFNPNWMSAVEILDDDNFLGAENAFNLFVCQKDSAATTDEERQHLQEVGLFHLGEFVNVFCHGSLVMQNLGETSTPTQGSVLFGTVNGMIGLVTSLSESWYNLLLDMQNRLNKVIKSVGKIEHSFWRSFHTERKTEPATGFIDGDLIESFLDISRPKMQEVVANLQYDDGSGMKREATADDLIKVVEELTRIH
T2 sequence (Q9UKT9 whole entry): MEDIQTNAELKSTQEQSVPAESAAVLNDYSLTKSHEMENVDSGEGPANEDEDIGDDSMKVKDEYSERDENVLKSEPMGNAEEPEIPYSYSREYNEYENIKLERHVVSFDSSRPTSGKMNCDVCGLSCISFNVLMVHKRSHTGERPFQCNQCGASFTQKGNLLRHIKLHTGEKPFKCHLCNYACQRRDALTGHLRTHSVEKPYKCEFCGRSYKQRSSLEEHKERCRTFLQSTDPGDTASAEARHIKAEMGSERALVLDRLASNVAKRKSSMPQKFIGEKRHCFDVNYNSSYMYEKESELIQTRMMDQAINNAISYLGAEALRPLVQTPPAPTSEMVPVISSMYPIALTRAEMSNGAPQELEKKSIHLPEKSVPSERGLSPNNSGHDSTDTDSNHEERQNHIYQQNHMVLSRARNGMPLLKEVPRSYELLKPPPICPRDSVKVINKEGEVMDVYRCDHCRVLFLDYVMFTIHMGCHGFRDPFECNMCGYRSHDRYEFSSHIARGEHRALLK
Put plainly: IKZF3-GFP protein abundance flow cytometry assay in HEK293A cells. Type of test: cell-based. Particulars: 24 h, Table 1; for IKZF3 deg Amax %: % protein remaining at maximum degradation. The method, then:
Compounds of the invention were tested in the following cellular assays. […] TMD8 cells are BTK dependent and OCI-LY3 cells are BTK independent.
BTK-GFP and IKZF3-GFP Protein Abundance Flow Cytometry Assay in HEK293A Cells:
Degradation of BTK or IKZF3 was measured in HEK293A cells (Invitrogen R70507) expressing either BTK-GFP and RFP or IKZF3-GFP and RFP from a stably integrated bicistronic BTK-GFP-iresRFP or IKZF3-GFP-iresRFP construct, respectively. Reduction of the GFP signal measured by flow cytometry served as readout for BTK or IKZF3 degradation after degrader treatment.
Stable HEK293A-BTK-GFP-iresRFP cells were maintained in complete growth medium (DMEM high Glucose+10% FCS+1% L-Glutamine+1% NEAA+1% NaPyr.) with passaging performed twice per week. On Day 0, HEK293A-BTK-GFP-iresRFP or HEK293A-IKZF3-GFP-iresRFP and HEK293A-iresRFP cells were seeded at 10,000 cells/well in a 96-well microtiter plate in 260 μl complete medium. On Day 1, cells were treated in duplicate with 10-point 1:3 dilution series of compound using the HP D300 Digital Dispenser (Tecan). DMSO concentrations were normalized across the plate to 0.1%. On Day 2, after 24 h of incubation at 37° C., treatment media was discarded, cells rinsed with 100 ul/well PBS and then detached using 40 ul trypsin/well for 5 min. Trypsin was neutralized with 100 ul/well PBS+20% FCS). Flow cytometry was performed on the samples using the BD FACS CANTO II (Becton Dickinson). Cell identification was then performed using forward (FSC) vs. side scatter (SSC) plots. Single cell discrimination is performed using SSC-Width (SSC-W) vs. SSC-Height (SSC-H) plots. Median GFP values for 5,000 single cells are used to determine BTK levels. Median GFP values from HEK293A-iresRFP are used as a background signal and thus defining 0% BTK signal. Median GFP values from DMSO treated HEK293A-BTK-GFP-iresRFP or HEK293A-IKZF3-GFP-iresRFP are used to define 100% BTK signal for subsequent DC50 curves (concentration at 50% BTK degradation). GFP and RFP are read in the channels called FITC and PE, respectively.
Concentration response curves plotting relative reduction of the GFP signal (measured by flow cytometry) versus 10 compound concentrations (starting concentration 10 μM, 3 fold dilution steps) of the compounds allowed generation of DC50 values.
Data is shown in Table 2, in which, DC50 refers to the concentration at which 50% maximal degradation was observed; deg Amax is the extent of degradation and the value refers to the % protein remaining at the concentration at which maximum degradation is seen.
On the technique in general: A flow cytometer gives signals particle by particle.

The text below walks through data of patent US11541056B2, “3-hydroxy-N-(3-(7H-pyrrolo[2,3-d]pyrimidin-4-yl)phenyl)pyrrolidine-1-carboxamide derivatives” (NOVARTIS AG, priority 2018, dated 2023).

Some results are limits rather than exact numbers.

T1 sequence (Q06187 whole entry): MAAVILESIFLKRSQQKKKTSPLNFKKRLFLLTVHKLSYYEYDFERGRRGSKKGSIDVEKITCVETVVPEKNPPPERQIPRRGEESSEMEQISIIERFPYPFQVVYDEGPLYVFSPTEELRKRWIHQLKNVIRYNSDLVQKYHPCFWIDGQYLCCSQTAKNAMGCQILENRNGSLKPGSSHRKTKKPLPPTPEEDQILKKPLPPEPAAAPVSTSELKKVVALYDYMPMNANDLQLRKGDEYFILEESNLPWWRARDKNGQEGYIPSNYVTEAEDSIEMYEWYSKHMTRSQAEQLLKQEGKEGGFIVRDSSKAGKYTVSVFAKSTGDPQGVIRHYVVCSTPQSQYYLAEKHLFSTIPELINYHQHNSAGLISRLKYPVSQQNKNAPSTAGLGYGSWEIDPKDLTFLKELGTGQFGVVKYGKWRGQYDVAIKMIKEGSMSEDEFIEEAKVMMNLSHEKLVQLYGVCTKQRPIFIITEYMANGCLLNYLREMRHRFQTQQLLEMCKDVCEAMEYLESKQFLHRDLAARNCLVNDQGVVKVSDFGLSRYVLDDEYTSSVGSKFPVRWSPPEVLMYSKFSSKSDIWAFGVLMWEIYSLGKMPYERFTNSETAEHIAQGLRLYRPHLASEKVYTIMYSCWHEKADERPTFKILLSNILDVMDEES
T1 sequence (Q96SW2 whole entry): as the sequence (Q96SW2 whole entry partner) above
T1 sequence (Q16531 whole entry partner): as the sequence (Q16531 whole entry partner) above

`COc1ccc(C(=O)N2CCC3(CCN(CCc4ccc(-c5cc6c(-c7cc(F)cc(NC(=O)N8C[C@@H](CC(C)C)[C@H](O)C8)c7C)ncnc6[nH]5)cc4)CC3)CC2)cc1N1CCC(=O)NC1=O` [Compound 19, (3S,4R)—N-(3-(6-(4-(2-(9-(3-(2,4-dioxotetrahydropyrimidin-1(2H)-yl)-4-methoxybenzoyl)-3,9-diazaspiro[5.5]undecan-3-yl)ethyl)phenyl)-7H-pyrrolo[2,3-d]pyrimidin-4-yl)-5-fluoro-2-methylphenyl)-3-hydroxy-4-isobutylpyrrolidine-1-carboxamide]: on BTK-GFP, the “BTK deg Amax %” value is 13% and the DC50 came out at 85.5 nM. Moreover, at IKZF3-GFP, the “IKZF3 deg Amax %” value was found to be 102.4% and the DC50 is greater than 1100 nM.
The corresponding values for `COc1ccc(C(=O)N2CCC(CCN3CCC(OCc4ccc(-c5cc6c(-c7cc(F)cc(NC(=O)N8C[C@H](CC(C)C)[C@@H](O)C8)c7C)ncnc6[nH]5)cc4)CC3)CC2)cc1N1CCC(=O)NC1=O` [Compound 22, (3R,4S)—N-(3-(6-(4-(((1-(2-(1-(3-(2,4-Dioxotetrahydropyrimidin-1 (2H)-yl)-4-methoxybenzoyl)piperidin-4-yl)ethyl)piperidin-4-yl)oxy)methyl)phenyl)-7H-pyrrolo[2,3-d]pyrimidin-4-yl)-5-fluoro-2-methylphenyl)-3-hydroxy-4-isobutylpyrrolidine-1-carboxamide] are 1.4%, 1.4 nM, 100.2% and greater than 1100 nM.
